According to US10669267B2, “Substituted N-[2-(4-phenoxypiperidin-1-yl)-2-(1,3-thiazol-5-yl)ethyl]benzamide and N-[2-(4-benzyloxypiperidin-1-yl)-2-(1,3-thiazol-5-yl)ethyl]benzamide derivatives P2X7 receptor antagonists” (Axxam S.P.A., priority 2016, dated 2020):
Like-named read-outs stand apart in the source and are kept apart here.

Experiments:
human P2X7 channel = human P2X7 channel (Homo sapiens (Human), UniProt Q99572); experiment: human P2X7 channel assay by automated patch-clamp (QPatch16X), BzATP-evoked current; assay type: cell-based; conditions: HEK-293 cells expressing P2X7, whole-cell voltage clamp, 100 microM BzATP, holding -80 mV; read-out: hP2X7 (IC50; nM)
Procedure: In order to directly monitor the block of P2X7 channel, an electrophysiological assay was developed and implemented on the QPatch16X automated electrophysiology instrument.
HEK-293 cells expressing the P2X7 channels were cultured in modified EMEM.
72 hours before experiment, 5 million cells were seeded onto T225 flasks. Just before the experiment cells were washed twice, detached from the flask with trypsin-EDTA, re-suspended in the suspension solution and placed on the QPatch 16x.
The compounds (20 mM in a 100% DMSO) stored at −20° C. were prepared the day of the experiment (a first dilution 1:20 in 100% DMSO to prepare a 1 mM stock solution, then a 1 microM solution in external solution+a serial dilution 1:10).
The standard whole-cell voltage clamp experiments were performed at room temperature. For these experiments the multihole technology was used and the data were sampled at 2 KHz.
After establishment of the seal and the passage in the whole cell configuration, the cells were held at −80 mV. The P2XR7 current was evoked by applying 100 microM of BzATP alone (4 times) and then in the presence increasing concentrations of the compound under investigation (1, 10, 100 and 1000 nM).
The pre-incubation periods 5 to 8 contain increasing concentrations of the compound of interest (1, 10, 100 and 1000 nM), as illustrated in FIGURE.
The maximal inward current evoked by BzATP in absence or presence of increasing concentrations of the compounds under investigation was measured and normalized.
Y: normalized response, 100% down to 0%, decreasing as X increases.
LogIC50: same log units as X
HillSlope: slope factor or HS, unitless

rat P2X7R = rat P2X7R (Rattus norvegicus (Rat), UniProt Q64663); experiment: rat P2X7 Ca2+ influx, Screen Quest Fluo-8 No Wash Calcium Assay Kit (FLIPR TETRA); assay type: cell-based; conditions: read-out: rP2X7 (IC50; nM)
Procedure: Ca^2+ influx was measured in HEK-293 cells stably transfected with the receptor using Screen Quest™ Fluo-8 No Wash Calcium Assay Kit (AAt Bioquest®). Briefly, once inside the cells, the lipophilic blocking groups of Fluo-8 are cleaved by non-specific cell esterases, resulting in a negatively-charged fluorescent-dye that stays inside cells. Its fluorescence increases upon binding to calcium. When HEK-293/P2X7 cells were stimulated with BzATP, Ca^2+ entered the cells and the fluorescence of Fluo-8 NW increaseed.
To routinely test the compounds, HEK-293 cells stably transfected with rat P2X7R were seeded overnight in growth medium at 10000, 15000 or 20000 cells/well in 384-well plate, according to the level of response after thawing. 24 hours later, the medium was removed and the cells were pre-loaded at RT for 1 hour with 20 μL/w of Fluo-8 NW prepared in Tyrode 0.3 mM Ca^2+/Mg^2+-free.
Compounds were tested at […] according to the following method: • first injection at […] of 10 μL of 3× test compound (in Tyrode's buffer 0.3 mM Ca^2+/Mg^2+-free+DMSO 0.5% final concentration) • 5′ incubation • second injection at […] of 15 µL of 3× BzATP at ˜ECK) (in Tyrode's buffer 0.3 mM Ca^2+/Mg^2+-free+BSA 0.0003% final concentration) • Fluorescence recording for 3′
Between one plate and the following, tips were extensively washed with water, then with 100% DMSO and finally with water to avoid carry-over inside the tips.
The effect of the test compounds was measured as percent inhibition vs a reference antagonist and IC50 values were calculated accordingly.

[1] = metabolic stability using Human liver Microsomes; assay type: in vitro ADME; parameters: unit not given here; conditions: 1 μM test compound, 1 mg/mL protein, pH 7.4, 0-60 min
Procedure: In vitro evaluation of test compounds for metabolic stability using Human liver
Test System Human (Mouse) Liver Microsomes
Test compound concentration: 1μM
Time Points: 0, 5, 10, 30 and 60 minutes
Final Protein concentration: 1 mg/mL
Number of Replicates: Two
Potassium Phosphate Buffer pH 7.4 100 mM
End Point: % Remaining of Test compound, Half life, Clint
Preparation and Dilution of Test Compound:
10 mM stock solution of test compound were prepared in DMSO and dilute with water: acetonitrile (1:1) to a concentration of 1 mM. Working concentration of 100 μM were prepared by further dilution with water: acetonitrile (1: 1).
Preparation of Potassium Phosphate buffer pH 7.4:
100 mL of Milli Q water will be added to K2HPO4 (1.398 g) and KH2PO4 (0.27 g) to get final pH 7.4.
Preincubation mixture: 2.5 μL Test Cpd.+75 μL Liver microsomes@3.33 mg/mL+85 μL of 100 mM potassium phosphate buffer (Preincubate for 10 min @37° C.)
60 min w/o cofactor: 32.5 μL of Preincubation mixture+17.5 μL of 100 mM potassium phosphate buffer (Incubate for 60 min@37° C.)
0 min sample: 16.25 μL of Preincubation mixture+200 μL of acetonitrile containing internal standard+8.75 μL of cofactor Incubation mixture 62 μL of cofactor (2.5 mM)+Remaining incubation mixture (Incubated for 60 min@37° C.).
Sample preparation: 25 μL incubation mixture+200 μL of acetonitrile containing internal standard+Vortex 5 min@1200 rpm+Centrifuge 10 min@4000 rpm. Dilute supernatant 2 fold with water and injected on LC-MS/MS.
Bioanalysis: LC-MS/MS method LC generic gradient conditions will be used and the details will be provided in the report.

[2] = Table 4, HEK-293 cells stably transfected with rat P2X7R, BzATP stimulation
[3] = Table 5, comparison with Compound 59 of WO2015118019

Chain of rat P2X7R (Q64663 whole entry): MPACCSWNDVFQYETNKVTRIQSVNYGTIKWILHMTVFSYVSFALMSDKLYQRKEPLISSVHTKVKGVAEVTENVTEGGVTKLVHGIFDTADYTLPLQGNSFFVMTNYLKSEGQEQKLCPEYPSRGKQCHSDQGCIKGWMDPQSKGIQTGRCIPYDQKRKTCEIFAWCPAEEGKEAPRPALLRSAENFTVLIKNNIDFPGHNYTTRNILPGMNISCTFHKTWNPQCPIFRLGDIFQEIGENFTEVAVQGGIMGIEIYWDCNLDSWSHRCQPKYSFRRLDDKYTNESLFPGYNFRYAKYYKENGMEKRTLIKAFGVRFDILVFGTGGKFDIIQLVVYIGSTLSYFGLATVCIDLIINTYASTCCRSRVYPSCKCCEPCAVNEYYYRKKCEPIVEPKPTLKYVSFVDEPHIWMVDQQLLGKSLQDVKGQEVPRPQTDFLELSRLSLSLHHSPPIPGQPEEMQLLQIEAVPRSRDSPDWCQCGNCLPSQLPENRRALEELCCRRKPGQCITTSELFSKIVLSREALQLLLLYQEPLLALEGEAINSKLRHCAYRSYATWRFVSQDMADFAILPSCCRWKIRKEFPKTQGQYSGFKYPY
Chain of human P2X7 channel (Q99572 whole entry): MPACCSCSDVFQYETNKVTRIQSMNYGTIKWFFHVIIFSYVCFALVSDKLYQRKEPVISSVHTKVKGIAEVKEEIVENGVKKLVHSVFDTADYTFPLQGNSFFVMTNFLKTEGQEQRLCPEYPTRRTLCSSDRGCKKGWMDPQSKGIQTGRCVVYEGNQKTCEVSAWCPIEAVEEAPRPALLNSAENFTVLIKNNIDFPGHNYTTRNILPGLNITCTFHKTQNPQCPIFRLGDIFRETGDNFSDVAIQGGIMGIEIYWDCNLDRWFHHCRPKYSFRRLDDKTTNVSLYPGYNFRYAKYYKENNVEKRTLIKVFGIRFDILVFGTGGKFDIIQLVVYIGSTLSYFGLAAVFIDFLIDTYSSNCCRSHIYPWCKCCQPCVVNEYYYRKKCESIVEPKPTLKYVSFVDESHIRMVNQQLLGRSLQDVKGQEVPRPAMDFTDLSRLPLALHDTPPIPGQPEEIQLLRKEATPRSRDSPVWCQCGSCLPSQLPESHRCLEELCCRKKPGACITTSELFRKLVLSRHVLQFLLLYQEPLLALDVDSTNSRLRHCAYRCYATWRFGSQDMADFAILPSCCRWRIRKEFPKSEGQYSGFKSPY

| Compound | IC50 (human P2X7 channel) | IC50 (rat P2X7R; [2]) | Human Liver Microsomal Clearance (CLi; μg/min/mg protein) [1] | IC50 (rat P2X7R; [3]) |
| --- | --- | --- | --- | --- |
| Cc1ncsc1C(CNC(=O)c1c(F)cccc1Cl)N1CCC(Oc2cc(F)cc(F)c2)CC1 (stereo not shown) [Compound 11, 2-chloro-N-{2-[4-(3,5-difluorophenoxy)piperidin-1-yl]-2-(4-methyl-1,3-thiazol-5-yl)ethyl}-6-fluorobenzamide] | 30.6 nM | 594 nM | 59.41 | – |
| Cc1ncsc1C(CNC(=O)c1cccc2ncccc12)N1CCC(Oc2ccc(F)cc2)CC1 (stereo not shown) [Compound 19, N-{2-[4-(4-fluorophenoxy)piperidin-1-yl]-2-(4-methyl-1,3-thiazol-5-yl)ethyl}quinoline-5-carboxamide] | 23.9 nM | 582 nM | 71.12 | – |
| Cc1ncsc1C(CNC(=O)c1cccc2ncccc12)N1CCC(Oc2cccc(F)c2)CC1 (stereo not shown) [Compound 21, N-{2-[4-(3-fluorophenoxy)piperidin-1-yl]-2-(4-methyl-1,3-thiazol-5-yl)ethyl}quinoline-5-carboxamide] | 26.4 nM | 268 nM | – | 268 nM |
| O=C(NCC(c1scnc1C(F)F)N1CCC(Oc2ccccc2F)CC1)c1c(F)cccc1Cl (stereo not shown) [Compound 30, 2-chloro-N-{2-[4-(difluoromethyl)-1,3-thiazol-5-yl]-2-[4-(2-fluorophenoxy)piperidin-1-yl]ethyl}-6-fluorobenzamide] | 40.7 nM | 329 nM | – | – |
| Cc1ncsc1C(CNC(=O)c1c(F)cccc1Cl)N1CCC(OCc2cc(F)cc(F)c2)CC1 (stereo not shown) [Compound 5, 2-chloro-N-(2-{4-[(3,5-difluorophenyl)methoxy]piperidin-1-yl}-2-(4-methyl-1,3-thiazol-5-yl)ethyl)-6-fluorobenzamide] | 35.1 nM | 506 nM | – | – |
| Cc1ncsc1C(CNC(=O)c1cccc2ncccc12)N1CCC(OCc2ccc(F)c(F)c2)CC1 (stereo not shown) [Compound 18, N-(2-{4-[(3,4-difluorophenyl)methoxy]piperidin-1-yl}-2-(4-methyl-1,3-thiazol-5-yl)ethyl)quinoline-5-carboxamide] | 36.9 nM | 374 nM | – | – |
| O=C(NCC(c1scnc1C(F)F)N1CCC(OCc2ccc(F)c(F)c2)CC1)c1cccc2ncccc12 (stereo not shown) [Compound 33, N-{2-[4-(difluoromethyl)-1,3-thiazol-5-yl]-2-{4-[(3,4-difluorophenyl)methoxy]piperidin-1-yl}ethyl}quinoline-5-carboxamide] | 56.2 nM | 182 nM | – | – |
| Cc1ncsc1C(CNC(=O)c1c(F)cccc1Cl)N1CCC(OCc2cccc(F)c2)CC1 (stereo not shown) [Compound 3, 2-chloro-6-fluoro-N-(2-{4-[(3-fluorophenyl)methoxy]piperidin-1-yl}-2-(4-methyl-1,3-thiazol-5-yl)ethyl)benzamide] | 5.95 nM | 373 nM | – | – |
| Cc1ncsc1C(CNC(=O)c1cccc2ncccc12)N1CCC(Oc2ccc(F)c(F)c2)CC1 (stereo not shown) [Compound 24, N-{2-[4-(3,4-difluorophenoxy)piperidin-1-yl]-2-(4-methyl-1,3-thiazol-5-yl)ethyl}quinoline-5-carboxamide] | 57.9 nM | 201 nM | – | 201 nM |
| Cc1ncsc1C(CNC(=O)c1cccc2ncccc12)N1CCC(Oc2ccccc2F)CC1 (stereo not shown) [Compound 22, N-{2-[4-(2-fluorophenoxy)piperidin-1-yl]-2-(4-methyl-1,3-thiazol-5-yl)ethyl}quinoline-5-carboxamide] | 30.2 nM | 355 nM | 93.44 | – |
| Cc1ncsc1C(CNC(=O)c1c(F)cccc1Cl)N1CCC(OCc2ccccc2F)CC1 (stereo not shown) [Compound 4, 2-chloro-6-fluoro-N-(2-{4-[(2-fluorophenyl)methoxy]piperidin-1-yl}-2-(4-methyl-1,3-thiazol-5-yl)ethyl)benzamide] | 28.1 nM | 953 nM | – | – |
| Cc1ncsc1C(CNC(=O)c1c(F)cccc1Cl)N1CCC(Oc2ccccc2F)CC1 (stereo not shown) [Compound 10, 2-chloro-6-fluoro-N-{2-[4-(2-fluorophenoxy)piperidin-1-yl]-2-(4-methyl-1,3-thiazol-5-yl)ethyl}benzamide] | 42.9 nM | 583 nM | – | – |
| Cc1ncsc1C(CNC(=O)c1c(F)cccc1Cl)N1CCC(Oc2ccc(F)cc2)CC1 (stereo not shown) [Compound 7, 2-chloro-6-fluoro-N-{2-[4-(4-fluorophenoxy)piperidin-1-yl]-2-(4-methyl-1,3-thiazol-5-yl)ethyl}benzamide] | 51.5 nM | 709 nM | – | – |
